Consider seven compounds from publication PMC7571175, “N-Benzyl Residues as the P1′ Substituents in Phosphorus-Containing Extended Transition State Analog Inhibitors of Metalloaminopeptidases” (Molecules, 2020).

Read-outs that look alike come from different tables or passages of the source.

Broadly, the Ki is the dissociation constant of the complex between target and ligand, obtained from inhibition or displacement.

In assay [1] the target is T1, leucine aminopeptidase from porcine kidney (SsLAP) (Sus scrofa, UniProt P28839).
T1 construct: Leucine aminopeptidase from porcine kidney (SsLAP) [26] and barley seeds (HvLAP) [21] were isolated and purified; from tissue; host or cells: porcine kidney
T1 sequence (P28839 1-519): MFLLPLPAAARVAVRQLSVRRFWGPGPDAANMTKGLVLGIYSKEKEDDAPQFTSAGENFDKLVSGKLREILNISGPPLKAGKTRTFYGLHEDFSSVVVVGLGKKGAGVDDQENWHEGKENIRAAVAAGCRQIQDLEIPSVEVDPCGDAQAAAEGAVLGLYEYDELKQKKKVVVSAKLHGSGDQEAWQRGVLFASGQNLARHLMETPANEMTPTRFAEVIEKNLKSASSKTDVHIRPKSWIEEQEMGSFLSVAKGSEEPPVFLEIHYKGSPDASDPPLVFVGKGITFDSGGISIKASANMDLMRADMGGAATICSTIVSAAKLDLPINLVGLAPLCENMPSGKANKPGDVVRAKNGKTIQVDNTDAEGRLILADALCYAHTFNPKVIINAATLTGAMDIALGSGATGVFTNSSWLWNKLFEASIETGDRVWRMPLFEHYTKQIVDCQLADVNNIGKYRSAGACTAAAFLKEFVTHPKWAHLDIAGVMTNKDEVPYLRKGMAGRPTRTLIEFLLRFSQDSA
As to the kind of experiment: Inhibition of porcine kidney leucine aminopeptidase (enzyme kinetics). It counts as biochemical. The conditions noted are these: porcine kidney LAP; compounds assayed as racemic mixtures. From the text:
(§1) Chemical and biochemical materials were purchased from Sigma-Aldrich (Poznań, Poland) and Avantor Performance Materials (Gliwice, Poland), and were used without further purification. Fluorogenic substrate Ala-AMC (L-alanine-4-methylcoumaryl-7-amide) was purchased from PeptaNova (Sandhausen, Germany). Microsomal alanyl aminopeptidase from porcine kidney (SsAPN) was purchased from Sigma-Aldrich (Poznań, Poland), and recombinant human alanine aminopeptidase (HsAPN) from R&D System (Minneapolis, MN, USA). Leucine aminopeptidase from porcine kidney (SsLAP) and barley seeds (HvLAP) were isolated and purified according to the procedures described previously. ^1H, ^13C, and ^31P NMR spectra were recorded on a 400YH (JEOL, Tokyo, Japan) spectrometer at 295 K. Mass spectra analyses were performed on a spectrometer LC-MS QDa (Waters e2695, 2489 UV/Vis Detector, Acquity QDa detector). HRMS spectra were registered using a Waters LCT Premier XE mass spectrometer (electrospray ionization, ESI) (Waters, Milford, MA, USA). The progress of the enzymatic reactions was monitored spectrophotometrically (UV-VIS Spectrophotometer, JASCO V-730) by following the change in absorbance at 405 nm (formation of p-nitroaniline), or by measuring fluorescence with a spectrofluorometer SpectraMax Gemini EM (Molecular Devices, San Jose, CA, USA) operating at two wavelengths: excitation 355 nm and emission 460 nm (for AMC).
(§2) The current studies followed the methodologies of the enzyme kinetic experiments, with calculation of the inhibition constants, and the mechanism of inhibition, which are presented in detail in our previous papers: For microsomal alanyl aminopeptidase from porcine kidney, recombinant human alanine aminopeptidase, leucine aminopeptidase from porcine kidney, and leucine aminopeptidase from barley seeds ([…]).

Assay [2] addresses T2, microsomal alanyl aminopeptidase from porcine kidney (SsAPN) (Sus scrofa, UniProt P15145).
T2 construct: Microsomal alanyl aminopeptidase from porcine kidney (SsAPN) was purchased from Sigma-Aldrich; purchased Sigma-Aldrich (Poznań, Poland); host or cells: porcine kidney
T2 sequence (P15145 1-963): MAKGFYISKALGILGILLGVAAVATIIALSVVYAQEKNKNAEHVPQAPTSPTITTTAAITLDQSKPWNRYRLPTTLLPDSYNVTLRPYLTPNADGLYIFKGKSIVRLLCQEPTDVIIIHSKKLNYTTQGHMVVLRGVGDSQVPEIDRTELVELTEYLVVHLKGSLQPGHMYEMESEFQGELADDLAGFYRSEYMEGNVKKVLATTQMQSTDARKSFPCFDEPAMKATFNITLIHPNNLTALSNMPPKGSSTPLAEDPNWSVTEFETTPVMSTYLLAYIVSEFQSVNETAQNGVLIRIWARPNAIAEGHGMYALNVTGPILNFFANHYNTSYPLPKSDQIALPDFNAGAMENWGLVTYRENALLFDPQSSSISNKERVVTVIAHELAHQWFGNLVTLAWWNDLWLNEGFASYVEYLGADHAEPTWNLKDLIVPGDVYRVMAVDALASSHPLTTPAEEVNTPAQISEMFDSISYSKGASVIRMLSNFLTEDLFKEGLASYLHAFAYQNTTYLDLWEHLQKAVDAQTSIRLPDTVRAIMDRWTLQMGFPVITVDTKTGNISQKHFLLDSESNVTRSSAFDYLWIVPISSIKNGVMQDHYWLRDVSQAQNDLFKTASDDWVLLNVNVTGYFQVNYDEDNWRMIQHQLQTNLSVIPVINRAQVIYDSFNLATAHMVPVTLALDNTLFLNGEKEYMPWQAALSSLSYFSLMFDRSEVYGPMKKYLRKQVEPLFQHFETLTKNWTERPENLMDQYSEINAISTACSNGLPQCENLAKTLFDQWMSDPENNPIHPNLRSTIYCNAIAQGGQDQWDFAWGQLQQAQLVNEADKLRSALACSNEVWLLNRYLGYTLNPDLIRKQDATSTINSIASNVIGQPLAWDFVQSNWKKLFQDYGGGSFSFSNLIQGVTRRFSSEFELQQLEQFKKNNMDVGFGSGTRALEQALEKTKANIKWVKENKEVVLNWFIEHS
Kind of assay: Inhibition of porcine kidney alanyl aminopeptidase (enzyme kinetics). It counts as biochemical. To be noted: porcine APN; compounds assayed as racemic mixtures.
Source text: as §1, §2

The target of assay [3] is T3, recombinant human alanine aminopeptidase (HsAPN) (Homo sapiens, UniProt P15144).
T3 construct: purchased R&D System (Minneapolis, MN, USA)
T3 sequence (P15144 whole entry): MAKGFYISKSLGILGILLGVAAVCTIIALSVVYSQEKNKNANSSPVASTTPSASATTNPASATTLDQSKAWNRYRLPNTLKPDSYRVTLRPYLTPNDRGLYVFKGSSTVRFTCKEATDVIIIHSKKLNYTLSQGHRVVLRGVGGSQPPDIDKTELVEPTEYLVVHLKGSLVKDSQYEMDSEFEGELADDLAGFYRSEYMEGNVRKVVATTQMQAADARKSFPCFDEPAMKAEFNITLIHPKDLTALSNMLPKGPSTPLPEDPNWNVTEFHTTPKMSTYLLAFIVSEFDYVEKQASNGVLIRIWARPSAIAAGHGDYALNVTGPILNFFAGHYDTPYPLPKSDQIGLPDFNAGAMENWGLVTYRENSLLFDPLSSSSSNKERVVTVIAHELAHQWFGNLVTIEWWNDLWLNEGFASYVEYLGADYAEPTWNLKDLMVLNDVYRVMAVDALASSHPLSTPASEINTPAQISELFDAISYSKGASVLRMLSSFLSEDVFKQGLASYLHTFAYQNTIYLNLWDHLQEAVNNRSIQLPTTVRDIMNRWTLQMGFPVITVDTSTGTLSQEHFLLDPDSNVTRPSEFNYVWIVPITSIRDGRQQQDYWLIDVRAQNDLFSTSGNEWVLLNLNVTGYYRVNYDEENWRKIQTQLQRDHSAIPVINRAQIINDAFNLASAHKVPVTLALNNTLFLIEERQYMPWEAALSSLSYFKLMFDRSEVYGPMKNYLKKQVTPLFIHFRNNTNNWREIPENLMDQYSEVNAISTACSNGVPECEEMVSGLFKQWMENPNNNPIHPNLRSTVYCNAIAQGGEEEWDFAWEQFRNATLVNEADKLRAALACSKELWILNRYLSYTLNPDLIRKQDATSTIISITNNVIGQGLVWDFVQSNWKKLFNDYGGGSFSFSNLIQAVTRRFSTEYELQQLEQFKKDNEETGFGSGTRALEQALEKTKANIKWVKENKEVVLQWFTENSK
As to the kind of experiment: Inhibition of recombinant human alanine aminopeptidase (enzyme kinetics). Format: biochemical. To be noted: for Ki: human APN; for Activity for human APN (in words): summary statement.
Source text: as §1, §2

Assay [4] deals with T2, microsomal alanyl aminopeptidase from porcine kidney (SsAPN). Also on record: method as in doi:10.1016/j.tetlet.2011.04.037. The conditions noted are these: porcine APN; reference compound, reported previously; cited from earlier work.
The target in assay [5] is T1, leucine aminopeptidase from porcine kidney (SsLAP). Also on record: method as in doi:10.1016/j.tetlet.2011.04.037. To be noted: porcine kidney LAP; reference compound, reported previously; cited from earlier work.
In another assay the target is thermolysin. To be noted: competitive tight-binding inhibitor; cited from earlier work.
Setting [6] is: compounds assayed as racemic mixtures, read-out: Ki HsAPN.

`NC(CCc1ccccc1)P(=O)(O)CN(CC(=O)O)Cc1ccc(C(=O)O)cc1` (stereo not drawn) [6c, N-{[1-Amino-3-phenylpropyl(hydroxy)phosphoryl]methyl}-N-4-carboxybenzylaminoacetic acid]: the Ki was 27 µM in assay [1], 34 µM in assay [2] and 1.4 µM in assay [3] (setting [6]).

Take `NC(CCc1ccccc1)P(=O)(O)CN(CC(=O)O)Cc1ccc(Cl)cc1Cl` (stereo not drawn) [6a, N-{[1-Amino-3-phenylpropyl(hydroxy)phosphoryl]methyl}-N-2,4-dichlorobenzylaminoacetic acid]: the Ki in assay [1] is 107 µM; in assay [2], 7.7 µM; in assay [3] (value of the abstract, read-out: Ki human alanyl aminopeptidase), 0.102 µM; in assay [3] (setting [6]), 0.1 µM. The “Activity for human APN (in words)” value in assay [3] was “potent submicromolar activity”.

Consider `NC(CCc1ccccc1)P(=O)(O)CNCC(=O)O` (stereo not drawn) [6g, N-{[1-Amino-3-phenylpropyl(hydroxy)phosphoryl]methyl}aminoacetic acid], for which the Ki in assay [1] came to 29 µM; in assay [2] it was 63 µM.

Turning to `NC(CCc1ccccc1)P(=O)(O)CN(CC(=O)O)Cc1ccccc1` (stereo not drawn) [compound 1], the Ki was 3 µM in assay [4] and 52 µM in assay [5].

On to `CC(C)CC(NP(=O)(O)C(Cc1ccccc1)NC(=O)OCc1ccccc1)C(=O)NC(C)C(=O)O` (stereo not drawn) [Cbz-PheP[NH]Leu-Ala-OH], for which the “Ki thermolysin (in words)” value on thermolysin is “picomolar range”.

For the compound `NC(CCc1ccccc1)P(=O)(O)CN(CC(=O)O)Cc1ccc([N+](=O)[O-])cc1` (stereo not drawn) [6d, N-{[1-Amino-3-phenylpropyl(hydroxy)phosphoryl]methyl}-N-4-nitrobenzylaminoacetic acid], the Ki in assay [1] was 53 µM; in assay [2] it was 17 µM; in assay [3] (setting [6]), 0.24 µM. Further, the “Activity for human APN (in words)” value in assay [3] is “potent submicromolar activity”.

Turning to `NC(CCc1ccccc1)P(=O)(O)CN(CC(=O)O)Cc1ccc(Br)cc1` (stereo not drawn) [6b, N-{[1-Amino-3-phenylpropyl(hydroxy)phosphoryl]methyl}-N-4-bromobenzylaminoacetic acid], the results for the inhibition constant Ki in assay [1], in assay [2] and in assay [3] (setting [6]) were 168 µM, 5.8 µM and 0.13 µM, respectively. In assay [3], the “Activity for human APN (in words)” value was “potent submicromolar activity”.
